Experimental data as given in PubChem BioAssay (NCI).
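1) Cells in 96-well plates. 2) Compound, 48 h, 5 concentrations. 3) Linear interpolation between surrounding doses. 4) Unreached endpoint = highest concentration. Abbreviation: GI50, concentration required for 50% inhibition of growth. TGI denotes the concentration required for complete inhibition of growth.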

Tests used:
Test in all cases: inhibition of tumour cell growth, NCI panel, 48 h
OVCAR-4 ovarian = tested on: OVCAR-4 ovarian
OVCAR-5 ovarian = tested on: OVCAR-5 ovarian
UACC-62 melanoma = tested on: UACC-62 melanoma
NCI-H23 lung = tested on: NCI-H23 lung
MOLT-4 leukemia = tested on: MOLT-4 leukemia
OVCAR-3 ovarian = tested on: OVCAR-3 ovarian
SF-539 CNS = tested on: SF-539 CNS
SF-268 CNS = tested on: SF-268 CNS
NCI-H226 lung = tested on: NCI-H226 lung
MALME-3M melanoma = tested on: MALME-3M melanoma

Structure (SMILES) | GI50 (OVCAR-4 ovarian) [µM] | TGI (OVCAR-4 ovarian) [µM] | GI50 (OVCAR-5 ovarian) [µM] | TGI (OVCAR-5 ovarian) [µM] | GI50 (UACC-62 melanoma) [µM] | TGI (UACC-62 melanoma) [µM] | GI50 (NCI-H23 lung) [µM] | TGI (NCI-H23 lung) [µM] | GI50 (MOLT-4 leukemia) [µM] | TGI (MOLT-4 leukemia) [µM] | GI50 (OVCAR-3 ovarian) [µM] | TGI (OVCAR-3 ovarian) [µM] | GI50 (SF-539 CNS) [µM] | TGI (SF-539 CNS) [µM] | GI50 (SF-268 CNS) [µM] | TGI (SF-268 CNS) [µM] | GI50 (NCI-H226 lung) [µM] | TGI (NCI-H226 lung) [µM] | GI50 (MALME-3M melanoma) [µM] | TGI (MALME-3M melanoma) [µM]
Cc1ccc(S(=O)(=O)N2CCc3ccc(O)c4c3C2Cc2cc(Cl)ccc2-4)cc1 (stereo not given) | 1.53 | 7.51 | 2.02 | 16.5 | 0.962 | 3.77 | 0.864 | 3.28 | 1.51 | 10.2 | 0.733 | 1.63 | 0.792 | 2.83 | 2.47 | 9.72 | 2.63 | 8.4 | 2.59 | 9.62
Cc1ccc(C)c(-c2csc(Nc3ccc(C)c(C)c3)n2)c1 | 48.3 | > 100 | > 100 | > 100 | > 100 | > 100 | 65.7 | > 100 | > 100 | > 100 | 66.3 | > 100 | 44.6 | > 100 | 29.8 | > 100 | > 100 | > 100 | > 100 | > 100
Cn1cc(C2=C(c3cn(CCN)c4ccccc34)C(=O)NC2=O)c2ccccc21 | 5.66 | > 21.2 | 10.8 | > 25 | 5.9 | 17.2 | 5.15 | 15.1 | 6.48 | 19.9 | 7.47 | > 23.9 | 4.83 | 13.9 | 7.41 | 20.4 | 4.44 | 18.1 | 5.99 | 13.5
COc1ccc2nc3ccccc3c(NCCCCCCN(C)CCCl)c2c1 |  | 3.03 |  | 3.25 |  | 1.61 |  | 1.04 |  | 0.165 |  | 3.12 |  | 2.11 |  | 2.48 |  | 1.55 |  | 2.06
CCN(CC)C(=O)COc1ccc(Br)cc1Br |  | > 100 |  | > 100 |  | > 100 |  | > 100 |  | > 100 |  | > 100 |  | > 100 |  | > 100 |  | > 100 |  | > 100
COc1ccc(-c2ccc(C3CC(c4ccc(Cl)cc4)=NN3)o2)c([N+](=O)[O-])c1 (stereo not given) | > 100 | > 100 | > 100 | > 100 | 78.4 | > 100 | > 100 | > 100 | > 100 | > 100 | > 100 | > 100 | > 100 | > 100 | > 100 | > 100 | > 100 | > 100 | > 100 | > 100
